Assays:
Type in all cases: in vivo
Details in all cases: evaluated after 13 days
[1] = system: Amaranthus retoflexus (AMARE); experiment: Post-emergence herbicide test, glasshouse, percentage damage
Procedure: (§1) Seeds of a variety of test species are sown in standard soil in pots (Lolium perenne (LOLPE), Solanum nigrum (SOLNI), Amaranthus retoflexus (AMARE), Setaria faberi (SETFA), Echinochloa crus-galli (ECHCG), Ipomoea hederacea (IPOHE)). After cultivation for one day (pre-emergence) or after 8 days cultivation (post-emergence) under controlled conditions in a glasshouse (at 24/16° C., day/night; 14 hours light; 65% humidity), the plants are sprayed with an aqueous spray solution derived from the formulation of the technical active ingredient in acetone/water (50:50) solution containing 0.5% Tween 20 (polyoxyethelyene sorbitan monolaurate, CAS RN 9005-64-5). Compounds are applied at 500 g/ha unless otherwise stated. The test plants are then grown in a glasshouse under controlled conditions in a glasshouse (at 24/16° C., day/night; 14 hours light; 65% humidity) and watered twice daily. After 13 days for pre and post-emergence, the test is evaluated for the percentage damage caused to the plant. The biological activities are shown in the following table on a five point scale (5=81-100%; 4=61-80%; 3=41-60%; 2=21-40%; 1=0-20%).

[2] = system: Echinochloa crus-galli (ECHCG); experiment: as above
Procedure: as §1

[3] = system: Ipomoea hederacea (IPOHE); experiment: as above
Procedure: as §1

Lolium perenne (LOLPE) [4] = experiment: as above
Procedure: as §1

Setaria faberi (SETFA) [5] = experiment: as above
Procedure: as §1

Solanum nigrum (SOLNI) [6] = experiment: as above
Procedure: as §1

[7] = system: Amaranthus retoflexus (AMARE); experiment: Pre-emergence herbicide test, glasshouse, percentage damage
Procedure: as §1

[8] = system: Echinochloa crus-galli (ECHCG); experiment: as above
Procedure: as §1

[9] = system: Ipomoea hederacea (IPOHE); experiment: as above
Procedure: as §1

Lolium perenne (LOLPE) [10] = experiment: as above
Procedure: as §1

Setaria faberi (SETFA) [11] = experiment: as above
Procedure: as §1

Solanum nigrum (SOLNI) [12] = experiment: as above
Procedure: as §1

Compound	percentage damage caused to the plant, AMARE ([1]; 500 g/ha)	percentage damage caused to the plant, ECHCG ([2]; 500 g/ha)	percentage damage caused to the plant, IPOHE ([3]; 500 g/ha)	percentage damage caused to the plant, LOLPE (Lolium perenne (LOLPE) [4]; 500 g/ha)	percentage damage caused to the plant, SETFA (Setaria faberi (SETFA) [5]; 500 g/ha)	percentage damage caused to the plant, SOLNI (Solanum nigrum (SOLNI) [6]; 500 g/ha)	Pre-emergence Test AMARE percentage damage (five point scale) ([7]; rate 500 g/ha)	Pre-emergence Test ECHCG percentage damage (five point scale) ([8]; rate 500 g/ha)	Pre-emergence Test IPOHE percentage damage (five point scale) ([9]; rate 500 g/ha)	Pre-emergence Test LOLPE percentage damage (five point scale) (Lolium perenne (LOLPE) [10]; rate 500 g/ha)	Pre-emergence Test SETFA percentage damage (five point scale) (Setaria faberi (SETFA) [11]; rate 500 g/ha)	Pre-emergence Test SOLNI percentage damage (five point scale) (Solanum nigrum (SOLNI) [12]; rate 500 g/ha)	percentage damage caused to the plant, AMARE ([1]; 250 g/ha)	percentage damage caused to the plant, ECHCG ([2]; 250 g/ha)	percentage damage caused to the plant, IPOHE ([3]; 250 g/ha)	percentage damage caused to the plant, SETFA (Setaria faberi (SETFA) [5]; 250 g/ha)	Pre-emergence Test AMARE percentage damage (five point scale) ([7]; rate 250 g/ha)	Pre-emergence Test ECHCG percentage damage (five point scale) ([8]; rate 250 g/ha)	Pre-emergence Test IPOHE percentage damage (five point scale) ([9]; rate 250 g/ha)	Pre-emergence Test SETFA percentage damage (five point scale) (Setaria faberi (SETFA) [11]; rate 250 g/ha)	other results
Fc1cc(Cl)cnc1Oc1cccc(F)c1-c1cc(C(F)F)no1 [Compound A1, 5-[2-[(5-CHLORO-3-FLUORO-2-PYRIDYL)OXY]-6-FLUORO-PHENYL]-3-(DIFLUOROMETHYL)ISOXAZOLE]	5 (5=81-100%)	5 (5=81-100%)	5 (5=81-100%)	5 (5=81-100%)	5 (5=81-100%)	5 (5=81-100%)	5 (5=81-100%)	5 (5=81-100%)	5 (5=81-100%)	5 (5=81-100%)	5 (5=81-100%)	5 (5=81-100%)	–	–	–	–	–	–	–	–	–
O=[N+]([O-])c1ccc(Oc2cccc(F)c2-c2cc(C(F)F)no2)nc1 [Compound A2, 3-(DIFLUOROMETHYL)-5-[2-FLUORO-6-[(5-NITRO-2-PYRIDYL)OXY]PHENYL]ISOXAZOLE]	5 (5=81-100%)	5 (5=81-100%)	4 (4=61-80%)	5 (5=81-100%)	5 (5=81-100%)	5 (5=81-100%)	5 (5=81-100%)	5 (5=81-100%)	2 (2=21-40%)	4 (4=61-80%)	5 (5=81-100%)	4 (4=61-80%)	–	–	–	–	–	–	–	–	–
Fc1cc(Cl)cnc1Oc1cccc(F)c1-c1ncc(C(F)(F)F)o1 [Compound A3, 2-[2-[(5-CHLORO-3-FLUORO-2-PYRIDYL)OXY]-6-FLUORO-PHENYL]-5-(TRIFLUOROMETHYL)OXAZOLE]	2 (2=21-40%)	1 (1=0-20%)	1 (1=0-20%)	1 (1=0-20%)	4 (4=61-80%)	3 (3=41-60%)	3 (3=41-60%)	3 (3=41-60%)	1 (1=0-20%)	1 (1=0-20%)	3 (3=41-60%)	3 (3=41-60%)	–	–	–	–	–	–	–	–	–
Fc1cc(Cl)cnc1Oc1cccc(I)c1-n1cc(C(F)(F)F)cn1 [Compound A57, 5-chloro-3-fluoro-2-[3-iodo-2-[4-(trifluoromethyl)pyrazol-1-yl]phenoxy]pyridine]	–	–	–	–	–	–	–	–	–	–	–	–	–	–	–	–	–	–	–	–	percentage damage caused to the plant, AMARE ([1]; 1000 g/ha): 5 (5=81-100%); percentage damage caused to the plant, ECHCG ([2]; 1000 g/ha): 1 (1=0-20%); percentage damage caused to the plant, IPOHE ([3]; 1000 g/ha): 2 (2=21-40%); percentage damage caused to the plant, LOLPE (Lolium perenne (LOLPE) [4]; 1000 g/ha): 1 (1=0-20%); percentage damage caused to the plant, SETFA (Setaria faberi (SETFA) [5]; 1000 g/ha): 4 (4=61-80%); percentage damage caused to the plant, SOLNI (Solanum nigrum (SOLNI) [6]; 1000 g/ha): 5 (5=81-100%); Pre-emergence Test AMARE percentage damage (five point scale) ([7]; rate 1000 g/ha): 5 (5=81-100%); Pre-emergence Test ECHCG percentage damage (five point scale) ([8]; rate 1000 g/ha): 1 (1=0-20%); Pre-emergence Test LOLPE percentage damage (five point scale) (Lolium perenne (LOLPE) [10]; rate 1000 g/ha): 1 (1=0-20%); Pre-emergence Test SETFA percentage damage (five point scale) (Setaria faberi (SETFA) [11]; rate 1000 g/ha): 5 (5=81-100%); Pre-emergence Test SOLNI percentage damage (five point scale) (Solanum nigrum (SOLNI) [12]; rate 1000 g/ha): 4 (4=61-80%)
Fc1cc(Cl)cnc1Oc1ccccc1-c1ccc(Cl)s1 [Compound A66, 5-chloro-2-[2-(5-chloro-2-thienyl)phenoxy]-3-fluoro-pyridine]	–	–	–	–	–	–	–	–	–	–	–	–	–	–	–	–	–	–	–	–	percentage damage caused to the plant, AMARE ([1]; 1000 g/ha): 5 (5=81-100%); percentage damage caused to the plant, ECHCG ([2]; 1000 g/ha): 3 (3=41-60%); percentage damage caused to the plant, IPOHE ([3]; 1000 g/ha): 2 (2=21-40%); percentage damage caused to the plant, LOLPE (Lolium perenne (LOLPE) [4]; 1000 g/ha): 1 (1=0-20%); percentage damage caused to the plant, SETFA (Setaria faberi (SETFA) [5]; 1000 g/ha): 2 (2=21-40%); percentage damage caused to the plant, SOLNI (Solanum nigrum (SOLNI) [6]; 1000 g/ha): 5 (5=81-100%)
Cc1ccc(C#N)nc1Oc1cccc(F)c1-c1cc(C(F)F)no1 [Compound A76]	–	–	–	–	–	–	–	–	–	–	–	–	2 (2=21-40%)	1 (1=0-20%)	3 (3=41-60%)	1 (1=0-20%)	–	–	–	–	percentage damage caused to the plant, LOLPE (Lolium perenne (LOLPE) [4]; 250 g/ha): 1 (1=0-20%); percentage damage caused to the plant, SOLNI (Solanum nigrum (SOLNI) [6]; 250 g/ha): 4 (4=61-80%)
FC(F)c1cc(-c2c(Br)cccc2Oc2ccc(Cl)cn2)on1 [Compound A100]	–	–	–	–	–	–	–	–	–	–	–	–	5 (5=81-100%)	5 (5=81-100%)	2 (2=21-40%)	5 (5=81-100%)	5 (5=81-100%)	2 (2=21-40%)	1 (1=0-20%)	5 (5=81-100%)	–
Cc1noc(-c2ccccc2Oc2ncc(Cl)cc2F)n1 [Compound A126]	–	–	–	–	–	–	–	–	–	–	–	–	–	–	–	–	5 (5=81-100%)	4 (4=61-80%)	1 (1=0-20%)	3 (3=41-60%)	–
Fc1cc(Cl)cnc1Oc1ccccc1-c1cc(C(F)F)on1 [Compound A163]	–	–	–	–	–	–	–	–	–	–	–	–	5 (5=81-100%)	5 (5=81-100%)	3 (3=41-60%)	5 (5=81-100%)	5 (5=81-100%)	4 (4=61-80%)	1 (1=0-20%)	5 (5=81-100%)	–
Fc1cc(Cl)cnc1Oc1ccccc1-n1cc(C(F)F)nn1 [Compound A169]	–	–	–	–	–	–	–	–	–	–	–	–	5 (5=81-100%)	5 (5=81-100%)	5 (5=81-100%)	5 (5=81-100%)	5 (5=81-100%)	5 (5=81-100%)	5 (5=81-100%)	5 (5=81-100%)	–

— patent US12227495B2, “Herbicidal compounds” (SYNGENTA CROP PROTECTION AG, priority 2018, dated 2025)
